From patent US5696263A, “Antiviral acyclic phosphonomethoxyalkylsubstituted alkenyl and alkynyl purine and pyrimidine derivatives” (Institute of Organic Chemistry and Biochemistry of the …, priority 1994, dated 1997)
Where two headings read alike, the source gives them in different places. Each block holds one molecule with its values, some of them ahead of it.

What was measured:
[1] = test system: CEM-SS cells; test: XTT assay, cellular toxicity in uninfected CEM-SS cells; type: cell-based; conditions: compounds evaluated with HIV LAV BRU strain (footnote e), 8640 min, read-out: TD50 (the source's name)
[2] = test system: human immunodeficiency virus LA BRU strain; test: XTT assay, anti-HIV activity with LAV BRU strain; type: cell-based; conditions: HIV LAV BRU strain (footnote e), read-out: ED50 (the source's name)
Protocol: (§1) Compounds were evaluated for activity against human immunodeficiency virus (HIV RF strain obtained from Luc Montagnier, Institut Pasteur, Paris, France) in CEM-SS cells (P. L. Nara, et al., in AIDS Res. Human. Retroviruses, 1987, 3, 283-302) using the XTT assay described by O. S. Weislow, et al., in J. Natl. Cancer Instit., 1989, 81, 577-586. CEM-SS cells were obtained from Owen Weislow at the National Cancer Institute. Cells were exposed to HIV and cultured in microtiter plates in the presence of test compounds at concentrations of 0.32, 1, 3.16, 10, 31.6, 100, 316 and 1000 um. On day six post-infection, the antiviral effect was measured using the XTT assay in which an optical density (OD) reading is obtained at each drug concentration. The optical density reading is proportional to the number of viable cells. The relative optical density values were derived by dividing the sample observed optical density by the value obtained for the control. Assays run in infected cells show the antiviral effect of the test compounds, where an increase in the number of viable cells (higher OD reading) reflects the protective, antiviral activity of the compound. Assays run in uninfected cells provide a measure of cellular toxicity.
(§2) The antiviral effect is also expressed (see Table 1) as the concentration of compound which increases the number of viable cells in infected cultures to 50%, to that of the untreated, uninfected control cultures (ED50). The cellular toxicity is expressed as the concentration of compound which reduces the number of viable cells to 50%, to that of the untreated control (TD50). The selectivity index (SI) is the ratio of TD50 to ED50.
(§3) ^a Effective Dose 50: In infected cells, concentration of compound
(§4) which results in an increase in the number of viable cells to 50% to that
^e The compounds were evaluated using human immunodeficiency virus LA
BRU strain obtained from Luc Montagnier, Institut Pasteur, Paris, France.

[3] = XTT assay, cellular toxicity in uninfected CEM-SS cells; type: cell-based; conditions: human, cem-ss cells
Protocol: as §1, §2
(§5) The anti-HIV activity and cellular toxicity of the test compounds are plotted in FIGS. 1-7 as a function of relative optical density versus increasing log concentrations of the test compounds (XTT assay). FIGS. 1-7 visually show the results of the relative anti-HIV activity of the test compounds on infected cells (--.circle-solid.--) and the cellular toxicity of the same test compound on uninfected cells (--.rect-solid.--).
(§6) ^b Toxic Dose 50: In uninfected cells, concentration of compound whic
(§7) results in a 50% decrease of viable cells.

[4] = test system: CEM-SS cells; test: as above; type: cell-based
Protocol: as §1, §2, §5, §6, §7

[5] = cell growth inhibition assay in CEM-SS cells; type: cell-based; conditions: human, cem-ss cells; 50 percent decrease in cell count vs control at day three (72 hours)
Protocol: (§8) The cytotoxicity of PMEG, (R)2'-vinyl-PMEG, (S)-2'-vinyl-PMEG and (R)-2'-azidomethyl-PMEG was also determined by the cell growth inhibition assay in CEM-SS cells.
(§9) *CC50 is the concentration of drug that causes a 50 percent decrease in
(§10) cell count as compared to the control at day three (72 hours).
(§11) 1. Choose proper range of the concentrations of the drug to be evaluated.
(§12) 2. Prepare the stock solutions of drugs in RPMI 1640 medium at 10× of the highest concentration needed in cell culture
(§13) 3. Make serial dilution of the 10× stock solutions with RPMI 1640 as needed, usually four different concentrations are used for each drug.
(§14) 4. Prepare CEM cell suspension at @5×10^4 cells/ml concentration
(§15) 5. To each 18 ml CEM cell suspension add 2 ml of properly diluted drug solution (from step 2 and 3) separately and mix well.
(§16) 6. For cell control, 2 ml of RPMI 1640 is added in place of the drug solutions.
(§17) 7. Two ml of the solutions from step 5 and 6 are dispensed in to the wells of 24-well plate as shown in the following diagram [drawing 14] 8. At time zero, cells in 4 wells from the control (no drug added) are counted
(§18) 9. At 24, 48, 72 and 96 hr post drug addition, both drug treated and control cells are counted
(§19) 10. All assay are done in duplicate, two 24-well plates are set up for each drug
(§20) 11. Cell counts obtained from drug treated cultures are compared to those from control cultures.
(§21) 12. The concentration of drug that causes a 50 percent of decrease of cell number as compared to the control at day three (72 hr) is assigned as the CC50 value of the drug.

[6] = test system: CEM-SS cells; test: cell growth inhibition assay in CEM-SS cells; type: cell-based; conditions: values of Table 2
Protocol: as §8, §9, §10, §11, §12, §13, §14, §15, §16, §17, §18, §19, §20, §21

[7] = test system: human immunodeficiency virus (HIV RF strain) in CEM-SS cells; test: XTT assay, anti-HIV RF activity in infected CEM-SS cells, six days post infection; type: cell-based; conditions: for SI (Selectivity Index: Ratio of TD50 to ED50): HIV RF; for SI (Selectivity Index: Ratio of TD50 to ED50) / EC50: CEM-SS cells; for EC50: Human immunodeficiency virus 1, CEM-SS, 144 h, HIV RF strain, XTT assay, six days post infection, read-out: ED50 (the source's name); for anti-HIV potency and selectivity as compared to the other compounds: data in Table 1; for cell protection against HIV: over a broad concentration range
Protocol: as §1, §2, §5
Another estimate of the effectiveness of a compound for use against HIV in the prevention and/or treatment of AIDS is a selectivity index (an in vitro "therapeutic index"), the ratio of the toxic dose 50 to the effective dose 50. The selectivity index (SI) for (RS), (R)- and (S)-2'-vinyl-PMEG and (RS), (R), (S), -2'-azidomethyl-PMEG of the instant invention and for the comparison compound PMEG are shown in Table 1.
Anti-HIV RF Activity in CEM-Cells Evaluated by XTT Assay
Six Days Post Infection
as §3, §4
^c Selectivity Index: Ratio of TD50 to ED50.

[8] = test system: Moloney sarcoma virus; conditions: experimental animals; cited from earlier work
[9] = test system: simian immunodeficiency virus (SIV); conditions: experimental animals; cited from earlier work
[10] = test system: HIV; conditions: in tissue cultures; cited from earlier work
[11] = test system: murine leukemia virus; conditions: experimental animals; cited from earlier work
[12] = test system: MT2 cells; test: cellular toxicity in uninfected MT2 cells (Southern Research Institute); type: cell-based; conditions: Southern Research Institute (footnote g), read-out: TD50 (the source's name)
Protocol: as §6, §7
(§22) ^g The compound was evaluated by Southern Research Institute using
(§23) human immunodeficiency virus HTLVIIIB strain and MT2 cells (S. Harada, et

[13] = test system: human immunodeficiency virus HTLVIIIB strain and MT2 cells; test: anti-HIV activity, HTLVIIIB strain in MT2 cells (Southern Research Institute); type: cell-based; conditions: Southern Research Institute (footnote g), read-out: ED50 (the source's name)
Protocol: as §3, §4, §22, §23

Compound: [N-]=[N+]=NC[C@H](Cn1ccc(N)nc1=O)OCP(=O)(O)O [(S)-2'-azidomethyl-PMEC, (S)-9-[3-azido-2-(phosphonomethoxy)propyl]cytosine]
CC50 [1]: > 500 µM
EC50 ([2]; 8640 min): > 500 µM

EC50 [7]: 5 µM
Compound: [N-]=[N+]=NC[C@@H](Cn1cnc2c(O)nc(N)nc21)OCP(=O)(O)O [(R)-2'-azidomethyl-PMEG, (R)-9-[3-azido-2-(phosphonomethoxy)propyl]guanine]
CC50 at 144 h [3]: > 1000 µM
observable cytotoxicity [4]: no observable cytotoxicity
CC50 at 72 h [5]: 1400 µM
toxicity in CEM-SS cells when compared to PMEG [6]: relatively non-toxic
SI (Selectivity Index: Ratio of TD50 to ED50) [7]: > 200
anti-HIV potency and selectivity as compared to the other compounds [7]: potent and selective anti-HIV agents
cell protection against HIV [7]: cell protection against HIV over a broad concentration

Compound: Nc1ncnc2c1ncn2CCOCP(=O)(O)O [PMEA]
effect on Moloney sarcoma virus [8]: proven its effect
effect on simian immunodeficiency virus (SIV) [9]: proven its effect
effect on HIV [10]: proven its effect
effect on murine leukemia virus [11]: proven its effect

EC50 [7]: 0.2 µM
Compound: Nc1nc2c(ncn2CCOCP(=O)(O)O)c(=O)[nH]1 [PMEG, 9-[2-(phosphonomethoxy)ethyl]guanine, reference compound]
CC50 at 144 h [3]: 15 µM
cellular toxicity [4]: cellular toxicity of PMEG prevents protection from the virus
CC50 at 72 h [5]: 2.4 µM
anti-HIV effect in CEM-SS cells ([7]; FIG. 7): some anti-HIV effect
SI (Selectivity Index: Ratio of TD50 to ED50) [7]: 30

Compound: [N-]=[N+]=NCC[C@@H](Cn1ccc(N)nc1=O)OCP(=O)(O)O [(S)-2'-azidoethyl-PMEC, (S)-9-[4-azido-2-(phosphonomethoxy)butyl]cytosine]
CC50 [1]: > 500 µM
EC50 ([2]; 8640 min): > 500 µM

EC50 [7]: 8 µM
Compound: [N-]=[N+]=NCC(Cn1cnc2c(=O)[nH]c(N)nc21)OCP(=O)(O)O (racemic) [(R,S)-2'-azidomethyl-PMEG, (RS)-9-[3-azido-2-(phosphonomethoxy)propyl]guanine]
CC50 at 144 h [3]: > 1000 µM
SI (Selectivity Index: Ratio of TD50 to ED50) [7]: > 125

EC50 [7]: 51 µM
Compound: [N-]=[N+]=NC[C@H](Cn1cnc2c(=O)[nH]c(N)nc21)OCP(=O)(O)O [(S)-2'-azidomethyl-PMEG, (S)-9-[3-azido-2-(phosphonomethoxy)propyl]guanine]
CC50 at 144 h [3]: > 1000 µM
SI (Selectivity Index: Ratio of TD50 to ED50) [7]: > 20

EC50 [7]: 19.6 µM
Compound: C=CC(Cn1cnc2c(=O)[nH]c(N)nc21)OCP(=O)(O)O (racemic) [(R,S)-2'vinyl-PMEG, (RS)-9-[2-(phosphonomethoxy)-3-butenyl]guanine]
CC50 at 144 h [3]: > 1000 µM
SI (Selectivity Index: Ratio of TD50 to ED50) [7]: > 51

EC50 ([2]; Human immunodeficiency virus 1, CEM-SS, 144 h): > 500 µM
Compound: [N-]=[N+]=NCC[C@@H](Cn1cnc2c(O)nc(N)nc21)OCP(=O)(O)O [(S)-2'-azidoethyl-PMEG, (S)-9-[4-azido-2-(phosphonomethoxy)butyl]guanine]
CC50 at 144 h [3]: > 500 µM

Compound: C=C[C@@H](Cn1cnc2c(O)nc(N)nc21)OCP(=O)(O)O [(S)-2'-vinyl-PMEG, (S)-9-[2-(phosphonomethoxy)-3-butenyl]guanine]
CC50 at 72 h [5]: 1600 µM
toxicity in CEM-SS cells when compared to PMEG [6]: relatively non-toxic
protection from HIV in CEM-SS cells ([7]; at 100 μM, FIG. 2): complete protection

Compound: Cc1cn(C[C@@H](CN=[N+]=[N-])OCP(=O)(O)O)c(=O)[nH]c1=O [(S)-2'-azidomethyl-PMET, (S)-9-[3-azido-2-(phosphonomethoxy)propyl]thymine]
CC50 [12]: > 500 µM
EC50 [13]: > 500 µM

Compound: C=C[C@@H](Cn1ccc(N)nc1=O)OCP(=O)(O)O [(S)-2'-vinyl-PMEC, (S)-9-[2-(phosphonomethoxy)-3-butenyl]cytosine]
CC50 [1]: > 500 µM
EC50 ([2]; 8640 min): > 500 µM

Compound: C=C[C@H](Cn1cnc2c(O)nc(N)nc21)OCP(=O)(O)O [(R)-2'-vinyl-PMEG, (R)-9-[2-(phosphonomethoxy)-3-butenyl]guanine]
CC50 at 144 h [3]: > 1000 µM
observable cytotoxicity [4]: no observable cytotoxicity
CC50 at 72 h [5]: 1600 µM
toxicity in CEM-SS cells when compared to PMEG [6]: relatively non-toxic
protection from the human immunodeficiency virus in CEM-SS cells ([7]; concentration range of 5 to 100 μM, FIG. 1): complete protection
anti-HIV potency and selectivity as compared to the other compounds [7]: potent and selective anti-HIV agents
cell protection against HIV [7]: cell protection against HIV over a broad concentration
